# Measurements: article PMC12636026 (Journal of the American Chemical Society, 2025)
# Bridges are numbered along the chain shown (N, C = ends). Roman numbers before positions name the chains, in order.
# What was measured:
# [1] = Circular dichroism folding (% folded from ellipticity at 222 nm); type: physicochemical; conditions: CD 222 nm, no metal, 10 mM HEPES pH 7.0, 293 K, triplicate
# [2] = Kinetics of Tb(III) binding and coiled coil folding (CD 222 nm / Tb emission 545 nm); type: physicochemical; conditions: 0.1, 1.0 and 10 μM, 10 mM HEPES pH 7.0, 1.0 equiv TbCl3
# [3] = Native mass spectrometry metalation; type: binding; conditions: 10 μM trimer : 10 μM metal, 50 mM ammonium acetate pH 6.8, room temperature, 60 min
# From the text: This preserves noncovalent interactions enabling coiled coil complexes to be detected. […] (C) Representative full Tb(III) emission spectra for each titration point. λex = 280 nm. […] Error bars determined from standard deviation error of three independent repeat experiments. […] page 4: […] Upon successful purification, removal of Tb(III) was confirmed on a small aliquot of cross-linked peptide by fluorescence spectroscopy. Here the absence of enhanced/sensitized Tb(III) emission, at 545 nm, is consistent with complete […] Stock solutions preparation: In all experiments, the concentration of peptide stock […] Once samples were prepared, the concentration of the solutions were checked by UV vis and adjust if necessary. All GdCl3 and TbCl3 stock solutions were freshly […] solutions were also freshly prepared and determined in a similar fashion using EDTA and xylenol orange indicator solution.6 The equivalence of metal added was then adjust to the exact concentration of peptide in the sample. […] in volumetric glassware using MilliQ water. Native mass spectrometry (MS): […] ammonium acetate pH 6.8. The concentrations of the peptides were measured using the […] Metal stock solutions were initially prepared by […] These stock solutions were then […] […] The observed molecular weights were calculated from an average of 3 charge states. […]
# [4] = target: T1, trypsin (bovine pancreas) (Bos taurus, UniProt P00760); assay: in vitro; type: in vitro ADME; conditions: 100 µM, 12 μM trypsin, 100 mM HEPES pH 7.5, 37 °C, HPLC
# T1 construct: from tissue; host or cells: bovine pancreas
# T1 sequence (P00760 24-246): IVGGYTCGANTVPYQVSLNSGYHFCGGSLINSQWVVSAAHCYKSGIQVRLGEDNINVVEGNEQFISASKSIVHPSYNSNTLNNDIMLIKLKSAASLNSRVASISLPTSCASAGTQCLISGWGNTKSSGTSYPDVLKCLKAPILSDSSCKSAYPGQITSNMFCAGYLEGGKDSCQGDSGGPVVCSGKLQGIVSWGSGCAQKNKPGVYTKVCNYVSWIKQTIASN
# Experimental: (§1) page 8: determined as reported periously10 at the data was fitted to the Hills equation using MatLab.11 Stability Studies: Zinc transmetallation experiments: Emission spectra of Tb(III) were recorded for 1.0 µM […] Zinc chloride (ZnCl₂) was then added to each cuvette to give a final concentration of 125 µM Zn(II), and the fluorescence emission spectra were subsequently collected over time. The Tb(III) emission for each sample was normalized to the integrated intensity of the 545 nm emission peak from the initial spectrum. Phosphate and HEPES: Emission spectra of Tb(III) were recorded for 1.0 µM solutions of […] Phosphate buffer prepared from a mixture of sodium monobasic and tribasic phosphate salts (to give a stock concentration of 100 mM at pH 7.0) […] Fluorescence emission spectra were subsequently collected over time. The Tb(III) emission for each sample was normalized to the integrated intensity of the 545 nm emission peak from the initial spectrum. A control was carried out using the same methodology, this time monitoring the change in Tb emission upon the addition of HEPES buffer instead of phosphate. Protease experiments: A trypsin (bovine pancreas) stock solution was prepared (1.5 mg/mL) by dissolving in 100 mM HEPES at pH 7.5. The peptide stock solution was prepared by dissolving the lyophilized peptide in the same buffer solution, and the concentration determined as reported previously. In the case when the peptide was metalated, samples were left to equilibrate with the metal upon addition for around 60 min. prior to the addition of the trypsin. Samples were left to incubate in a water bath at 37°C. At specific time points, 35 µl of each sample were taken and quenched with 35 µl of 4% TFA solution. […] Individual peaks from the HPLC were collected and then analyzed by ESI mass spectrometry in positive mode. Samples were ionised using nanoelectrospray ionisation (TriVersa NanoMate, Advion Interchim Scientific, […] 8 page 27: Figure S14: […] Figure S14: […] pancreas) and 100 mM HEPES buffered at pH 7.5. […] monitored. 27 (1 picture or pasted object on this page, not shown here) page 28: Figure S15: […] Figure S15: […] pancreas) and 100 mM HEPES buffered at pH 7.5. […] monitored. 28 (1 picture or pasted object on this page, not shown here)
# [5] = tested on: T2, trypsin (bovine pancreas); assay: in vitro; type: in vitro ADME; conditions: isolated enzyme trypsin, 100 µM, 12 μM trypsin, 100 mM HEPES pH 7.5, 37 °C, HPLC, trimers lacking C-terminal G-NH2 or Ac-G IAAIEQK counted
# T2 construct: from tissue; host or cells: bovine pancreas
# Experimental: as §1
substance,measurement,setting,value
"I: Ac-GIAAIEQKIAANEWKDAAIEQKIAAIEQKIAAIEQKG-NH2 / II: Ac-GIAAIEQKIAANEWKDAAIEQKIAAIEQKIAAIEQKG-NH2 / III: Ac-GIAAIEQKIAANEWKDAAIEQKIAAIEQKIAAIEQKG-NH2 (amide I:15-II:20, I:20-III:15, II:15-III:20) [KH2-20X]",% apo folding (10.0 μM trimer),[1],96 ± 3%
same,rate of Tb(III) binding (sensitized emission 545 nm),[2],rapid across all tested concentrations
same,% metalation by native mass spectrometry,[3],95–100%
same,"abundance of trimeric cross-linked IAANEWK DAAIEQK fragment at 30 min, apo",[4],5%
same,"abundance of trimeric cross-linked IAANEWK DAAIEQK fragment at 6 h, apo",[4],20%
same,remaining at 0.5 h,"[5]; read-out: % remaining intact as trimers after 30 min trypsin, apo",~74%
same,remaining at 6 h,"[5]; read-out: % remaining intact as trimers after 6 h trypsin, apo",~45%
